US20080200448A1, “New Pyridine Analogues VIII 518” (ASTRAZENECA AB, priority 2007, published 2008)

Target: T1, P2Y12 receptor (Homo sapiens, UniProt Q9H244)
T1 construct: expressed in transfected cells; host or cells: CHO cells (membrane preparation)
Experiment: Functional inhibition of 2-Me-S-ADP induced P2Y12 signalling (35S-GTPγS binding, cell membranes)
Type: biochemical
Conditions: 35S-GTPγS assay, membranes, EC80 concentration of 2-methyl-thio-adenosine diphosphate, 30° C. for 45 min; read-out: GTPγS (IC50 μM)
Summary of the method: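 Membranes (5 μg) from P2Y12-transfected CHO cells in pH 7.4 HEPES buffer with 10 μM GDP and saponin were stimulated with an EC80 of 2-methyl-thio-ADP plus compound and ^35S-GTPγS for 45 min at 30° C. Filter-retained ^35S-GTPγS was counted, normalised between agonist and no-agonist activity, and IC50 taken from a four-parameter fit.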

T1 sequence (Q9H244 whole entry): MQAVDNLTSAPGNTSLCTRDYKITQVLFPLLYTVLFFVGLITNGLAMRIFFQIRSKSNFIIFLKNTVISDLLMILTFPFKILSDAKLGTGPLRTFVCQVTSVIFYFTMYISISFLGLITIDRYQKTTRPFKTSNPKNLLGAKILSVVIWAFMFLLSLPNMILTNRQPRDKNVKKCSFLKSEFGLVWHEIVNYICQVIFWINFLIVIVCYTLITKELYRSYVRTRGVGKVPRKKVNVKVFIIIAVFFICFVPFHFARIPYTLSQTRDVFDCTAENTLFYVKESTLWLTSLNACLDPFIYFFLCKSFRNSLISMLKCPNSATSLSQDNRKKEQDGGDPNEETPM

| SMILES | IC50 [µM] |
| --- | --- |
| CC(C)OC(=O)c1cc(Cl)c(N2CCC(C(=O)NS(=O)(=O)Cc3ccccc3)CC2)nc1CN1CCCC1=O [Example 96, Isopropyl 6-{4-[(benzylsulfonyl)carbamoyl]piperidin-1-yl}-5-chloro-2-[(2-oxopyrrolidin-1-yl)methyl]nicotinate] | 0.178 |
| CCOC(=O)c1cc(C#N)c(N2CCC(C(=O)NS(=O)(=O)CC3CCCC3)CC2)nc1CN1CCCC1=O [Example 36, Ethyl 5-cyano-6-(4-{[(cyclopentylmethyl)sulfonyl]carbamoyl}piperidin-1-yl)-2-[(2-oxopyrrolidin-1-yl)methyl]nicotinate] | 0.017 |
| CCOC(=O)c1cc(C#N)c(N2CCC(C(=O)NS(=O)(=O)Cc3ccccc3)CC2)nc1CSc1nccn1C [Example 118, Ethyl 6-{4-[(benzylsulfonyl)carbamoyl]piperidin-1-yl}-5-cyano-2-{[(1-methyl-1H-imidazol-2-yl)thio]methyl}nicotinate] | 0.052 |
| CCOC(=O)c1cc(C#N)c(N2CCC(C(=O)NS(=O)(=O)Cc3ccccc3)CC2)nc1CSCC(=O)O [Example 115, ({[6-{4-[(Benzylsulfonyl)carbamoyl]piperidin-1-yl}-5-cyano-3-(ethoxycarbonyl)pyridin-2-yl]methyl}thio)acetic acid] | 0.035 |
| CCOC(=O)c1cc(Cl)c(N2CCC(C(=O)NS(=O)(=O)Nc3ccc(F)cc3)CC2)nc1CN1CCCC1=O [Example 91, Ethyl 5-chloro-6-[4-({[(4-fluorophenyl)amino]sulfonyl}carbamoyl)piperidin-1-yl]-2-[(2-oxopyrrolidin-1-yl)methyl]nicotinate] | 0.145 |
| CCOC(=O)c1cc(C#N)c(N2CCC(C(=O)NS(=O)(=O)Cc3ccccc3)CC2)nc1O[C@@H](C)C(=O)OCC [Example 120, Ethyl 6-{4-[(benzylsulfonyl)carbamoyl]piperidin-1-yl}-5-cyano-2-[(1S)-2-ethoxy-1-methyl-2-oxoethoxy]nicotinate] | 0.019 |
| CCOC(=O)c1cc(C#N)c(N2CCC(C(=O)NS(=O)(=O)CC3CCOCC3)CC2)nc1CN1CCCC1=O [Example 72, Ethyl 5-cyano-2-[(2-oxopyrrolidin-1-yl)methyl]-6-(4-{[(tetrahydro-2H-pyran-4-ylmethyl)sulfonyl]carbamoyl}piperidin-1-yl)nicotinate] | 0.725 |
| CCOC(=O)c1cc(F)c(N2CCC(C(=O)NS(=O)(=O)Cc3ccccc3)CC2)nc1CN1CCCC1=O [Example 127, Ethyl 6-{4-[(benzylsulfonyl)carbamoyl]piperidin-1-yl}-5-fluoro-2-[(2-oxopyrrolidin-1-yl)methyl]nicotinate] | 0.079 |
| CCOC(=O)c1cc(Cl)c(N2CCC(C(=O)NS(=O)(=O)Cc3ccccc3)CC2)nc1SCCNC(C)=O [Example 105, Ethyl 2-[(2-acetamidoethyl)thio]-6-{4-[(benzylsulfonyl)carbamoyl]piperidin-1-yl}-5-chloronicotinate] | 0.048 |
| CCOC(=O)c1cc(C#N)c(N2CCC(C(=O)NS(=O)(=O)CC3CCCCC3)CC2)nc1CN1CCCCC1=O [Example 61, Ethyl 5-cyano-6-(4-{[(cyclohexylmethyl)sulfonyl]carbamoyl}piperidin-1-yl)-2-[(2-oxopiperidin-1-yl)methyl]nicotinate] | 0.061 |
| CCOC(=O)CSc1nc(N2CCC(C(=O)NS(=O)(=O)Cc3ccccc3)CC2)c(C#N)cc1C(=O)OCC [Example 126, Ethyl 6-{4-[(benzylsulfonyl)carbamoyl]piperidin-1-yl}-5-cyano-2-[(2-ethoxy-2-oxoethyl)thio]nicotinate] | 0.011 |
| CCOC(=O)CSc1nc(N2CCC(C(=O)NS(=O)(=O)CC3CCCC3)CC2)c(C#N)cc1C(=O)OCC [Example 110, Ethyl 5-cyano-6-(4-{[(cyclopentylmethyl)sulfonyl]carbamoyl}piperidin-1-yl)-2-[(2-ethoxy-2-oxoethyl)thio]nicotinate] | 0.053 |
| CCOC(=O)c1cc(Cl)c(N2CCC(C(=O)NS(=O)(=O)Cc3ccc(C)cc3)CC2)nc1CN1CCCC1=O [Example 87, Ethyl 5-chloro-6-(4-{[(4-methylbenzyl)sulfonyl]carbamoyl}piperidin-1-yl)-2-[(2-oxopyrrolidin-1-yl)methyl]nicotinate] | 0.037 |
| CC(C)OC(=O)c1cc(C#N)c(N2CCC(C(=O)NS(=O)(=O)CC3CCC3)CC2)nc1CN1CCCC1=O [Example 81, Isopropyl 5-cyano-6-(4-{[(cyclobutylmethyl)sulfonyl]carbamoyl}piperidin-1-yl)-2-[(2-oxopyrrolidin-1-yl)methyl]nicotinate] | 0.094 |
| CCOC(=O)c1cc(C#N)c(N2CCC(C(=O)NS(=O)(=O)Cc3ccccc3)CC2)nc1SCC(=O)O [Example 26, {[6-{4-[(Benzylsulfonyl)carbamoyl]piperidin-1-yl}-5-cyano-3-(ethoxycarbonyl)pyridin-2-yl]thio}acetic acid] | 0.0081 |
| CC(C)OC(=O)c1cc(C#N)c(N2CCC(C(=O)NS(=O)(=O)CC3CCCC3)CC2)nc1CN1CCCC1=O [Example 47, Isopropyl 5-cyano-6-(4-{[(cyclopentylmethyl)sulfonyl]carbamoyl}piperidin-1-yl)-2-[(2-oxopyrrolidin-1-yl)methyl]nicotinate] | 0.065 |
| CCOC(=O)c1cc(C#N)c(N2CCC(C(=O)NS(=O)(=O)Cc3ccccc3)CC2)nc1COC(C)=O [Example 5, Ethyl 2-(acetoxymethyl)-6-{4-[(benzylsulfonyl)carbamoyl]piperidin-1-yl}-5-cyanonicotinate] | 0.044 |
| CCOC(=O)c1cc(C#N)c(N2CCC(C(=O)NS(=O)(=O)Cc3ccccc3)CC2)nc1OCC(=O)NC [Example 25, Ethyl 6-{4-[(benzylsulfonyl)carbamoyl]piperidin-1-yl}-5-cyano-2-[2-(methylamino)-2-oxoethoxy]nicotinate] | 0.075 |
| CCOC(=O)c1cc(Cl)c(N2CCC(C(=O)NS(=O)(=O)Cc3ccc(Cl)cc3)CC2)nc1SCCNC(C)=O [Example 104, Ethyl 2-[(2-acetamidoethyl)thio]-5-chloro-6-(4-{[(4-chlorobenzyl)sulfonyl]carbamoyl}piperidin-1-yl)nicotinate] | 0.057 |
| CCOC(=O)c1cc(C#N)c(N2CC(C(=O)NS(=O)(=O)Cc3ccccc3)C2)nc1CN=[N+]=[N-] [Example 9, Ethyl 2-(azidomethyl)-6-{3-[(benzylsulfonyl)carbamoyl]azetidin-1-yl}-5-cyanonicotinate] | 0.069 |
| CC(C)OC(=O)c1cc(C#N)c(N2CCC(C(=O)NS(=O)(=O)Cc3ccc(Cl)cc3)CC2)nc1CN1CCCC1=O [Example 48, Isopropyl 6-(4-{[(4-chlorobenzyl)sulfonyl]carbamoyl}piperidin-1-yl)-5-cyano-2-[(2-oxopyrrolidin-1-yl)methyl]nicotinate] | 0.012 |
